Reference: PubChem BioAssay (NCI)
Where “and” joins values, the source holds several entries; their conditions need not be identical. Equal values may be shown once.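 96-well plates; 48 h exposure; 5 concentrations. Endpoints by linear interpolation between flanking doses. Not reached: highest tested concentration assigned. Here, GI50 denotes the concentration required for 50% inhibition of growth. TGI denotes the concentration required for complete inhibition of growth.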

Legend:
Assay in all cases: NCI tumour cell line growth inhibition, 48 h
NCI-H522 lung = test system: NCI-H522 lung
K-562 leukemia = test system: K-562 leukemia
U251 CNS = test system: U251 CNS
HT29 colon = test system: HT29 colon
SW-620 colon = test system: SW-620 colon
LOX IMVI melanoma = test system: LOX IMVI melanoma
TK-10 renal = test system: TK-10 renal
HCT-116 colon = test system: HCT-116 colon
DLD-1 colon = test system: DLD-1 colon
DMS 114 small cell lung = test system: DMS 114 small cell lung

## Cc1cc2c(c3c1c1ccccc1n3C)C(=O)C=CC2=O
NCI-H522 lung
  TGI: 34.7 µM
K-562 leukemia
  TGI: > 54 µM
U251 CNS
  TGI: 45.1 µM
HT29 colon
  TGI: > 70.2 µM
SW-620 colon
  TGI: 28.7 µM
LOX IMVI melanoma
  TGI: 35.6 µM
TK-10 renal
  TGI: 65 µM
HCT-116 colon
  TGI: 43.8 µM
DLD-1 colon
  TGI: 20.4 µM

## C/C(CN1C(=O)c2ccccc2C1=O)=N\NS(=O)(=O)c1cccc([N+](=O)[O-])c1
NCI-H522 lung
  TGI: > 100 µM
K-562 leukemia
  TGI: > 100 µM
U251 CNS
  TGI: > 100 µM
HT29 colon
  TGI: > 100 µM
SW-620 colon
  TGI: > 100 µM
TK-10 renal
  TGI: > 100 µM
HCT-116 colon
  TGI: > 100 µM
DLD-1 colon
  TGI: > 100 µM

## CC(C)C[C@@H](NC(=O)[C@@H](Cc1ccccc1)NC(=O)c1cnccn1)B1O[C@H]2[C@H](O)[C@@H](C(=O)NCCCC[C@@H]3NC(=O)[C@@H](Cc4ccccc4)NC(=O)[C@H](CC(=O)O)NC(=O)CNC(=O)[C@H](CCCN=C(N)N)NC3=O)O[C@@H](CN)[C@H]2O1
NCI-H522 lung
  GI50: 0.0033 µM and < 0.005 µM
  TGI: 0.0115 µM and < 0.005 µM
K-562 leukemia
  GI50: 0.0088 µM and 0.005 µM
U251 CNS
  GI50: 0.0328 µM and 0.00592 µM
  TGI: 0.218 µM and 0.0431 µM
HT29 colon
  GI50: 0.00418 µM and 0.005 µM
  TGI: 0.0325 µM and 0.00763 µM
SW-620 colon
  GI50: 0.00454 µM and 0.005 µM
  TGI: 0.239 µM and 0.652 µM
LOX IMVI melanoma
  GI50: 0.00397 µM and 0.005 µM
  TGI: 0.0159 µM and 0.0058 µM
TK-10 renal
  GI50: 0.00308 µM and 0.005 µM
  TGI: 0.0249 µM and 0.00851 µM
HCT-116 colon
  GI50: 0.00339 µM and 0.005 µM
  TGI: 0.0182 µM and 0.0103 µM

## S=CN1CCCCC1
NCI-H522 lung
  TGI: > 100 µM
K-562 leukemia
  TGI: > 100 µM
U251 CNS
  TGI: > 100 µM
HT29 colon
  TGI: > 100 µM
SW-620 colon
  TGI: > 100 µM
LOX IMVI melanoma
  TGI: > 100 µM
TK-10 renal
  TGI: > 100 µM
HCT-116 colon
  TGI: > 100 µM

## CC(C)(C)[OH+][O-].[O-]c1ccc(Cl)cc1C=Nc1ccc(Cl)cc1[O-].[O]=[V]
NCI-H522 lung
  GI50: 9.12 µM
  TGI: 25.1 µM
K-562 leukemia
  GI50: 31.5 µM
  TGI: > 100 µM
U251 CNS
  GI50: 20.2 µM
  TGI: 69.2 µM
HT29 colon
  GI50: 21.9 µM
  TGI: 67.3 µM
SW-620 colon
  GI50: 19.6 µM
  TGI: 41.7 µM
LOX IMVI melanoma
  GI50: 5.9 µM
  TGI: 25.9 µM
TK-10 renal
  GI50: 13.8 µM
  TGI: 73.7 µM
HCT-116 colon
  GI50: 21.4 µM
  TGI: 98.9 µM

## CCNc1nnc(CSc2nc(-c3ccccc3)c(-c3ccccc3)[nH]2)s1
NCI-H522 lung
  TGI: 39.7 µM
DMS 114 small cell lung
  TGI: 63.1 µM
U251 CNS
  TGI: 26.9 µM
HT29 colon
  TGI: 37.9 µM
SW-620 colon
  TGI: 44.1 µM
LOX IMVI melanoma
  TGI: 31.1 µM
TK-10 renal
  TGI: 56.5 µM
HCT-116 colon
  TGI: 38.8 µM
DLD-1 colon
  TGI: 52.7 µM

## O=C1c2ccccc2-c2c1c1ccccc1c(=O)n2CCCNCCCn1c2c(c3ccccc3c1=O)C(=O)c1ccccc1-2
NCI-H522 lung
  GI50: 13.7 µM
  TGI: > 50 µM
K-562 leukemia
  GI50: 4.07 µM
U251 CNS
  GI50: 1.12 µM
  TGI: 2.67 µM
HT29 colon
  GI50: 0.997 µM
  TGI: > 50 µM
SW-620 colon
  GI50: 0.852 µM
  TGI: > 12.5 µM
LOX IMVI melanoma
  GI50: 1.49 µM
  TGI: 8.25 µM
TK-10 renal
  GI50: 5.34 µM
  TGI: 18 µM
HCT-116 colon
  GI50: 1.75 µM
  TGI: > 28.9 µM

## O=C(Nc1ccc(S(=O)(=O)Nc2nccs2)cc1)c1cccnc1Nc1cccc(Cl)c1
NCI-H522 lung
  GI50: 11 µM
  TGI: 28.4 µM
K-562 leukemia
  GI50: 10.4 µM
  TGI: 41.1 µM
U251 CNS
  GI50: 13.2 µM
  TGI: 26.1 µM
HT29 colon
  GI50: 16.7 µM
  TGI: 30.3 µM
SW-620 colon
  GI50: 14.2 µM
  TGI: 28.7 µM
LOX IMVI melanoma
  GI50: 7.31 µM
  TGI: 19.9 µM
TK-10 renal
  GI50: 22.8 µM
  TGI: 51.1 µM
HCT-116 colon
  GI50: 12.2 µM
  TGI: 25.2 µM

## Nc1ccccc1C#CC#Cc1ccccc1N
NCI-H522 lung
  GI50: 11.5 µM
  TGI: 38.6 µM
K-562 leukemia
  GI50: 5.78 µM
  TGI: > 100 µM
U251 CNS
  GI50: 8.53 µM
  TGI: 21 µM
HT29 colon
  GI50: 20.6 µM
  TGI: > 100 µM
SW-620 colon
  GI50: 15.7 µM
  TGI: 35.3 µM
LOX IMVI melanoma
  GI50: 6.78 µM
  TGI: 19.4 µM
TK-10 renal
  GI50: 12.5 µM
  TGI: 32.9 µM
HCT-116 colon
  GI50: 6.02 µM
  TGI: 24.8 µM

## COc1cccc(-c2nn(-c3ccccc3)cc2-c2ccnc(NCCNS(=O)(=O)c3ccc(Cl)cc3)c2)c1
NCI-H522 lung
  GI50: 2.47 µM
  TGI: 9.76 µM
K-562 leukemia
  GI50: 3.73 µM
  TGI: > 100 µM
U251 CNS
  GI50: 5.89 µM
  TGI: > 100 µM
HT29 colon
  GI50: 3.37 µM
  TGI: 11.3 µM
SW-620 colon
  GI50: 5.44 µM
  TGI: > 100 µM
LOX IMVI melanoma
  GI50: 3.12 µM
  TGI: > 100 µM
TK-10 renal
  GI50: 4.75 µM
  TGI: > 100 µM
HCT-116 colon
  GI50: 4.63 µM
  TGI: > 100 µM

## CN/N=C(/Cc1occc(=O)c1O)C(=O)Nc1ccc(C)c(C)c1
NCI-H522 lung
  TGI: > 100 µM
DMS 114 small cell lung
  TGI: > 100 µM
K-562 leukemia
  TGI: > 100 µM
U251 CNS
  TGI: > 100 µM
HT29 colon
  TGI: > 100 µM
SW-620 colon
  TGI: > 100 µM
LOX IMVI melanoma
  TGI: > 100 µM
TK-10 renal
  TGI: > 100 µM
HCT-116 colon
  TGI: > 100 µM

## COc1ccc(C(=O)Cn2c(C(=O)c3ccc(Cl)cc3)nc3ccccc32)cc1
NCI-H522 lung
  GI50: 10.3 µM
  TGI: > 100 µM
K-562 leukemia
  GI50: 3.33 µM
  TGI: > 100 µM
U251 CNS
  GI50: 19.4 µM
  TGI: > 100 µM
HT29 colon
  GI50: 7.58 µM
  TGI: > 100 µM
SW-620 colon
  GI50: 4.4 µM
  TGI: > 100 µM
LOX IMVI melanoma
  GI50: 17.5 µM
  TGI: > 100 µM
TK-10 renal
  GI50: > 62.9 µM
  TGI: > 100 µM
HCT-116 colon
  GI50: 2.56 µM
  TGI: > 25 µM

## CC(=O)N1CCC2(C=Nc3ccccc32)CC1
DMS 114 small cell lung
  TGI: > 100 µM
K-562 leukemia
  TGI: > 100 µM
U251 CNS
  TGI: > 100 µM
HT29 colon
  TGI: > 100 µM
SW-620 colon
  TGI: > 100 µM
LOX IMVI melanoma
  TGI: > 100 µM
TK-10 renal
  TGI: > 100 µM
HCT-116 colon
  TGI: > 100 µM
DLD-1 colon
  TGI: > 100 µM

## O=[N+]([O-])c1ccc(N2CCN(Cc3ccccc3)CC2)c2c1no[n+]2[O-]
NCI-H522 lung
  GI50: 0.682 µM
  TGI: 2.16 µM
K-562 leukemia
  GI50: 1.05 µM
  TGI: 2.98 µM
U251 CNS
  GI50: 1.24 µM
  TGI: 2.65 µM
HT29 colon
  GI50: 0.829 µM
  TGI: 2.12 µM
SW-620 colon
  GI50: 1.2 µM
  TGI: 3.05 µM
LOX IMVI melanoma
  GI50: 0.558 µM
  TGI: 1.67 µM
TK-10 renal
  GI50: 1.75 µM
  TGI: 3.23 µM
HCT-116 colon
  GI50: 0.95 µM
  TGI: 2.38 µM

## O=C(/C=C/c1ccco1)c1ccc(Nc2nc(Nc3ccc(F)cc3)nc(Nc3ccc(Cl)cc3)n2)cc1
NCI-H522 lung
  GI50: 31.1 µM
  TGI: > 100 µM
K-562 leukemia
  GI50: 24.3 µM
  TGI: > 64.8 µM
U251 CNS
  GI50: 19.5 µM
  TGI: 53.8 µM
HT29 colon
  GI50: 15.6 µM
  TGI: > 89.7 µM
SW-620 colon
  GI50: 24.5 µM
  TGI: > 63.3 µM
LOX IMVI melanoma
  GI50: 16.1 µM
  TGI: 39.3 µM
TK-10 renal
  GI50: 10.3 µM
  TGI: > 35.9 µM
HCT-116 colon
  GI50: 16.5 µM
  TGI: > 54.4 µM

## CN(C)/[N+]([O-])=N/Oc1cc(Nc2cccc(C(=O)O)c2)c([N+](=O)[O-])cc1[N+](=O)[O-]
NCI-H522 lung
  GI50: 69.3 µM
  TGI: > 100 µM
K-562 leukemia
  GI50: 61.6 µM
  TGI: > 100 µM
U251 CNS
  GI50: 35.3 µM
  TGI: > 100 µM
HT29 colon
  GI50: > 100 µM
  TGI: > 100 µM
SW-620 colon
  GI50: > 100 µM
  TGI: > 100 µM
LOX IMVI melanoma
  GI50: 38.5 µM
  TGI: > 100 µM
TK-10 renal
  GI50: > 100 µM
  TGI: > 100 µM
HCT-116 colon
  GI50: 34.5 µM
  TGI: > 100 µM
